According to PMC6008768, “Physiologically Based Pharmacokinetic Modelling with Dynamic PET Data to Study the In Vivo Effects of Transporter Inhibition on Hepatobiliary Clearance in Mice” (Contrast Media & Molecular Imaging, 2018):
Where “and” joins values, the source holds several entries; their conditions need not be identical. Equal entries are not always repeated. Where two headings read alike, the source gives them in different places.

What was measured:
[1] = Plasma kinetics: biexponential fit of image-derived CPlasma(t) from dynamic PET; type: in vivo, mice
Method: (§1) For PET/CT acquisition, mice were anaesthetized with 3 to 5% isoflurane in air/oxygen (1 : 1), at a respiratory rate of ~60 per min as described elsewhere. Cyclosporine (50 mg/kg), to inhibit cyclosporine-sensitive transporters, was injected into a tail vein (i.v.), 30 to 50 min before tracer injection while the respective tracer was synthesized. The injected cyclosporine solution was a dilution with water for injection (1 : 1) of Sandimmun® (Novartis Pharmaceuticals, Basel, Switzerland; 50 mg/ml cyclosporine in 26.1% ethanol/65% PEG-35 castor oil). Vehicle (13% ethanol, 2 ml/kg) was injected as a control as indicated. Immediately after radiosynthesis quality control, the tracer was injected i.v. at a dose between 3 and 14 MBq (<20 nmol/kg) in 100 to 200 μL saline containing 5% ethanol. Injections lasted ~10 s. The mouse was transferred to a SuperArgus PET/CT scanner (Sedecal, Madrid, Spain, formerly Vista eXplore) with an axial field of view of 4.8 cm and a spatial resolution of 1.6–1.7 mm (full width at half maximum; [23]). Body temperature and respiratory rate were controlled as previously described. The PET scan was started in List mode 60 s after tracer injection. After 60 min scan duration, computed tomography (CT) data were recorded for anatomical orientation.
The blood C(t) was generated with PMOD from the PET images as follows. A cropped cube of 10 × 10 × 10 mm^3 including the image data of the heart was divided into 12 segments with differing kinetics, using the PSEG module of PMOD. C(t) of the segment covering the left heart ventricle according to the PET (first time frame)/CT images was used as an estimation of the blood C(t) (CBlood(t)). CBlood(t) was divided by (1 − hematocrit) to get CPlasma(t) and fitted to a biexponential infusion function as shown in (1) CPlasmat=A0/T×V1×λ1×V1/Vz−λ1/λ1λz−λ1×1−e^−λ1×tt≤T+Tt>T×e^−λ1×t−Tt>T+λ1×V1/Vz−λz/λzλ1−λz×1−e^−λz×tt≤T+Tt>T×e^−λz×t−Tt>T, where A(0) is the radioactivity dose, T is the duration of the injection (10 s infusion), V1 is the volume of the central compartment (initial volume of distribution of the tracer after injection), Vz is the volume of distribution during the terminal phase, and λ1 and λz are the respective rate constants of the biexponential function and t the time. The term [t(t ≤ T) + T(t > T)] equals t if t ≤ T but T if t > T. The term (t − T)(t > T) equals t − T if t > T, otherwise zero. The hematocrit was assumed 0.44 [25, 26].
Total CL was calculated as the sum of CLH and CLR and compared to the CL estimated from the CPlasma(t) biexponential fits (see (1)), as CL = λz × Vz. The extraction ratio EH for liver was estimated as ratio between CLH and QP,H, with QP,H from Davies and Morris.

[2] = In vivo PBPK compartment modelling of dynamic whole-body PET data; parameters: species or system mice; conditions: for average CLH when kBG was fitted / calculated transintestinal clearance: kBG fitted
From the text: C(t) of liver, kidneys, and peripheral tissue and A(t) of gallbladder and intestines were derived from manually drawn volumes of interest according to the PET/CT images, using the VOI functions of PMOD. Regions of interest are shown for a representative scan in Supplementary Figure 1. C(t) data were transformed to A(t) by multiplication with the reported average volume of the respective organ or tissue. These were 0.065 cm^3 per g BW for liver and 0.0164 cm^3 per g BW for kidneys. The volume of the “peripheral tissue” (VTissue) with C(t) determined from the left shoulder was estimated during the fitting procedure. It was 0.74 ± 0.08 cm^3 per g BW for [^11C]MT107 control scans and 0.79 ± 0.10 cm^3/g for [^11C]MT107 scans after cyclosporine treatment, without significant difference (p = 0.47).
A(t) of the individual regions of interest were fitted with custom-written MATLAB scripts (MathWorks, Natick, MA) according to the compartment model shown in Figure 2, using the ode45 function to solve the differential equation system. Tracer input was simulated as a constant input of duration T (A(0)/T). Fitting was performed with the solver fmincon and the function MultiStart with 128 random sets of bounded initial parameters. Calculations were performed by parallel computing on 40 cores of the Euler cluster of ETH Zurich (https://scicomp.ethz.ch/). The initial parameters were best guesses from supervised simulations. Initial lower bounds were 0 for the rate constants of mass transfer (k). For k from plasma to liver and kidneys, the initial upper bounds were set according to the reported values for blood flow, corrected for (1 − hematocrit) to get the plasma flow (QP) divided by the plasma volume (VPlasma = vBlood × (1 − hematocrit) × BW). The QP for liver (QP,H) was 1.0 ml/min and for kidneys (QP,R) 0.73 ml/min.
Figure 2 Model for the pharmacokinetic analysis. A(0) is the dose, and T is the infusion duration (10 s). Initial A(t = 0) for all compartments (indicated by black boxes) were zero. The parameters k are mass transfer rate constants with the unit 1/time. The indices denote the source and target compartments, respectively (e.g., kBH1, k for the mass transfer from blood plasma to hepatic compartment “Liver 1”). A(t) of peripheral tissue was best fit with two sets of rate constants for reversible transfer. The sum of the two plasma-to-tissue rate constants is kBT. Several models were evaluated and the results were visually inspected. […] For [^11C]MT107 scans, kBG (grey arrow) was set to 0. Tissue blood fractions (vBlood multiplied with the organ or tissue volume and CBlood(t)) were added to the compartments where applicable. B, blood plasma; G, gallbladder plus intestine combined; H, liver; R, kidneys; T, peripheral tissue; U, urine.
During the fitting procedure, the sum of weighted squared residuals of all A(t) was minimized. For weighting, the residuals of the first two data points of plasma, liver, and kidney were multiplied with 5, to force the fits through these initial data points. After several rounds, the best estimates with the lowest sum of squared residuals were used per tracer to define the final upper and lower bounds as 0.5-fold the minimal respective fit parameter and 2-fold the highest respective fit parameter per tracer. […] Under these refined conditions, one calculation (one scan) with 128 random sets of initial values required 10–120 min.
CLH was calculated according to (2) CLH=kBH1×kH1H2/kH1B+kH1H2×VPlasma, where the rate constants k are defined in the model in Figure 2. Note that at steady state this equals CLH calculated from kH2G.
The term 1/(1 + kR1R2/kR2R1) corrects for the mass ratio between R1 and the combined R1 and R2.
Total CL was calculated as the sum of CLH and CLR and compared to the CL estimated from the CPlasma(t) biexponential fits (see (1)), as CL = λz × Vz. […]

[3] = PET images: radioactivity distribution; type: in vivo, mice; conditions: for radioactivity distribution in PET images: control conditions; for change of radioactivity distribution in PET images: cyclosporine 50 mg/kg i.v. before tracer, compared to scans without cyclosporine
Method: as §1
The PET data were reconstructed into 10 or 12 time frames by 2D Fourier rebinning/ordered-subsets expectation maximization (FORE/OSEM), 2 iterations, and 16 subsets, correcting for singles and randoms but not attenuation. Images were generated with the software PMOD v3.8 (PMOD, Zurich, Switzerland). All radioactivities were decay-corrected to the time point of tracer injection.

[4] = cited from earlier work
[5] = system: human costimulatory molecule CD80 (hCD80); parameters: method as in Taddio et al., in preparation; conditions: ref Taddio et al., in preparation; cited from earlier work
[6] = parameters: method as in PMID 24834996; conditions: cited from earlier work
[7] = system: hCD80-positive xenografts; parameters: method as in PMID 24834996; conditions: previous work; cited from earlier work
[8] = parameters: method as in PMID 24834996; conditions: 30 min after administration; cited from earlier work
[9] = after cyclosporine 50 mg/kg i.v.
[10] = after cyclosporine 50 mg/kg i.v., 30 to 50 min before tracer
[11] = control, tracer i.v., 60 min PET scan
[12] = control, for [11C]AM7 CLH includes kBG × VPlasma, for [11C]MT107 kBG = 0
[13] = cyclosporine 50 mg/kg i.v. versus control

Structure (SMILES) | Vz, volume of distribution during the terminal phase [1, 9] [mL] | λ1 rate constant of biexponential function [1, 9] [min⁻¹] | λz rate constant of biexponential function [1, 9] | V1, volume of the central compartment [1, 10] [mL] | Vz, volume of distribution during the terminal phase ([1]; control) | λ1 rate constant of biexponential function ([1]; control) | λz rate constant of biexponential function ([1]; control) | V1, volume of the central compartment [1, 11] | CLR, renal clearance ([2]; control) | DTissue, distribution coefficient between tissue and plasma at equilibrium ([2]; control) | CLH, hepatobiliary clearance [2, 12] | radioactivity distribution in PET images [3] | change of radioactivity distribution in PET images [3] | affinity to hCD80 [5] | other results
[11CH3]N1CCC(NC(=O)c2ccc(-n3[nH]c4c(c(-c5cccc(C(F)(F)F)c5)nc5c(F)cccc54)c3=O)cc2)CC1 [[^11C]MT107] | 3.33 ± 0.80 | 0.139 ± 0.021 | 0.0140 ± 0.0034^∗∗b 1/min | 1.38 ± 0.11 | 2.66 ± 0.51 mL | 0.121 ± 0.011 min⁻¹ | 0.0210 ± 0.0011 min⁻¹ | 1.49 ± 0.19 mL | 11.9 ± 5.3 µL/min | 0.10 ± 0.02 | 35.2 ± 10.9 µL/min | higher tissue radioactivity compared to [^11C]AM7 but still high abdominal radioactivity accumulation | increased radioactivity uptake in the kidneys and peripheral tissue and reduction in the liver | low nanomolar range | increase of Vz after cyclosporine administration ([1]; not significant (p = 0.21)): 1.25 fold; kGH1, rate constant of reabsorption from intestines into liver compartment H1 ([2]; absence of cyclosporine): 0.0077 ± 0.0033 min⁻¹; CLR, renal clearance [2, 9]: 19.9 ± 5.1 µL/min; DTissue, distribution coefficient between tissue and plasma at equilibrium [2, 9]: 0.14 ± 0.03; CLH, hepatobiliary clearance ([2]; after cyclosporine 50 mg/kg i.v., kBG = 0): 17.1 ± 5.6 µl/min and 17.1 ± 5.6^∗b µl/min; average CLH when kBG was fitted ([2]; after cyclosporine administration): 9.3 ± 4.2 µL/min; increase of CLR after cyclosporine administration ([2]; average, not significant (p = 0.069)): 1.7 fold; EH, extraction ratio for liver (CLH/QP,H) ([2]; control): 0.035 ± 0.011; total CL from modelling lower than from biexponential fit of CPlasma(t) ([2]; control group): 16%; VTissue, volume of the peripheral tissue estimated during fitting ([2]; control scans): 0.74 ± 0.08 cm^3 per g BW; average CLH when kBG was fitted ([2]; control): 25.4 ± 6 µL/min; calculated transintestinal clearance ([2]; control): 10.5 ± 11.3 µL/min; CLH after cyclosporine relative to value in the absence of cyclosporine [2, 13]: 48%; EH after cyclosporine relative to value in the absence of cyclosporine [2, 13]: 48%; total CL from modelling lower than from biexponential fit of CPlasma(t) ([2]; cyclosporine group): 17%; calculated transintestinal clearance ([2]; cyclosporine group): 7.8 ± 4.1 µL/min; increase of average DTissue after cyclosporine administration (factor) ([2]; not significant (p = 0.078)): 1.34; kGH1, rate constant of reabsorption from intestines into liver compartment H1 ([2]; presence of cyclosporine): 0.0080 ± 0.0038 min⁻¹; VTissue, volume of the peripheral tissue estimated during fitting ([2]; scans after cyclosporine treatment): 0.79 ± 0.10 cm^3/g; logD (pH 7.4) ([4]; ref Taddio et al., in preparation): 2.0
[11CH3]N1CCC(NC(=O)c2ccc(-n3[nH]c4c(nnc5c(F)cccc54)c3=O)cc2)CC1 [[^11C]AM7] | 8.0 | 0.204 | 0.0206 min⁻¹ | 4.2 | 10.3 mL and 9.4 mL | 0.196 min⁻¹ and 0.295 min⁻¹ | 0.0234 min⁻¹ and 0.0270 min⁻¹ | 3.0 mL and 2.3 mL | 161 µL/min and 179 µL/min | 0.11 and 0.12 | 103 µL/min and 120 µL/min | accumulated in the liver, gallbladder, intestines, and the urinary bladder | increased in kidneys and peripheral tissue and reduced in liver, gallbladder, and intestines | low nanomolar range | logD (pH 7.4) [4]: 0.1; unbound fraction in plasma (fu) [6]: 0.02; accumulation in hCD80-positive xenografts [7]: negligible; radiometabolites in blood plasma [8]: No radiometabolites were detected
